Measurements reported in ChEMBL document CHEMBL3826961, “Lanostane triterpenoids from Ganoderma curtisii and their NO production inhibitory activities of LPS-induced microglia” (Bioorg Med Chem Lett, 2016).

Experiments:
[1] = Antiinflammatory activity in mouse BV2 cells assessed as inhibition of LPS-induced NO production incubated for 24 hrs measured after 15 mins by Griess assay; format: functional, cell-based; settings: BV-2
[2] = Cytotoxicity against LPS-induced mouse BV2 cells assessed as cell viability after 24 hrs by MTT assay; format: cell-based, BV-2; parameters: concentration or dose not given beside the values; settings: read-out: Activity

SMILES | IC50 [1] [µM] | viability at 24 h [2] [%]
CC(CC(=O)C[C@@H](C)[C@H]1C[C@H](O)[C@@]2(C)C3=C(C(=O)C[C@]12C)[C@@]1(C)CCC(=O)C(C)(C)[C@@H]1C[C@@H]3O)C(=O)O (stereo partly specified) | 13.6 | 97.9
CC(=O)O[C@@H]1C(=O)C2=C(C(=O)C[C@H]3C(C)(C)[C@@H](O)CC[C@]23C)[C@]2(C)C(=O)C[C@H](/C(C)=C\C(=O)CC(C)C(=O)O)[C@@]12C (stereo partly specified) | 10.4 | 95.1
CC(CC(=O)C[C@@H](C)[C@H]1C[C@H](O)[C@@]2(C)C3=C(C(=O)C[C@]12C)[C@@]1(C)CC[C@H](O)C(C)(C)[C@@H]1C[C@@H]3O)C(=O)O (stereo partly specified) | 13.6 | 90.7
CC(CC(=O)C[C@@H](C)[C@H]1CC(=O)[C@@]2(C)C3=C(C(=O)[C@@H](O)[C@]12C)[C@@]1(C)CCC(=O)C(C)(C)[C@@H]1C[C@@H]3O)C(=O)O (stereo partly specified) | 5.91 | 92.3
CC(CC(=O)C[C@@H](C)[C@H]1C[C@H](O)[C@@]2(C)C3=C(C(=O)C[C@]12C)[C@@]1(C)CC[C@H](O)[C@@](C)(CO)[C@@H]1C[C@@H]3O)C(=O)O (stereo partly specified) | 4.15 | 97.8
CC(=O)O[C@@H]1C(=O)C2=C(C(=O)C[C@H]3C(C)(C)C(=O)CC[C@]23C)[C@]2(C)C(=O)C[C@H](/C(C)=C\C(=O)CC(C)C(=O)O)[C@@]12C (stereo partly specified) | 28 | 94.3
C/C(=C/C(=O)CC(C)C(=O)O)[C@H]1CC(=O)[C@@]2(C)C3=C(C(=O)C[C@]12C)[C@@]1(C)CCC(=O)C(C)(C)[C@@H]1C[C@@H]3O (stereo partly specified) | 13.8 | 96.5
C/C(=C/C(=O)CC(C)C(=O)O)[C@H]1CC(=O)[C@@]2(C)C3=C(C(=O)[C@@H](O)[C@]12C)[C@@]1(C)CC[C@H](O)C(C)(C)[C@@H]1CC3=O (stereo partly specified) | 25.9 | 94.5
C/C(=C/C(=O)CC(C)C(=O)O)[C@H]1C[C@H](O)[C@@]2(C)C3=C(C(=O)C[C@]12C)[C@@]1(C)CCC(=O)C(C)(C)[C@@H]1C[C@@H]3O (stereo partly specified) | 8.73 | 92.5
C/C(=C/C(=O)CC(C)C(=O)O)[C@H]1CC(=O)[C@@]2(C)C3=C(C(=O)[C@@H](O)[C@]12C)[C@@]1(C)CC[C@H](O)C(C)(C)[C@@H]1C[C@@H]3O (stereo partly specified) | 9.55 | 93.5
CC(CC(=O)C[C@@H](C)[C@H]1C[C@H](O)[C@@]2(C)C3=C(C(=O)C[C@]12C)[C@@]1(C)CC[C@H](O)C(C)(C)[C@@H]1CC3=O)C(=O)O (stereo partly specified) | 6.5 | 89.3
CC(CC(=O)C[C@](C)(O)[C@H]1CC(=O)[C@@]2(C)C3=C(C(=O)[C@@H](O)[C@]12C)[C@@]1(C)CC[C@H](O)C(C)(C)[C@@H]1C[C@@H]3O)C(=O)O (stereo partly specified) | 21.3 | 96.3
C/C(=C/C(=O)CC(C)C(=O)O)[C@H]1C[C@H](O)[C@@]2(C)C3=C(C(=O)C[C@]12C)[C@@]1(C)CCC(=O)C(C)(C)[C@@H]1CC3 (stereo partly specified) | 26.8 | 89.3
CC(CC(=O)C[C@@H](C)[C@H]1CC(=O)[C@@]2(C)C3=C(C(=O)C[C@]12C)[C@@]1(C)CCC(=O)C(C)(C)[C@@H]1CC3=O)C(=O)O (stereo partly specified) | 9.41 | 97.5
CC(CC(=O)C[C@@H](C)[C@H]1CC(=O)[C@@]2(C)C3=C(C(=O)C[C@]12C)[C@@]1(C)CC[C@H](O)C(C)(C)[C@@H]1C[C@@H]3O)C(=O)O (stereo partly specified) [GANODERIC ACID B] | 20.2 | 94.7
CC(CC(=O)C[C@@H](C)[C@H]1CC(=O)[C@@]2(C)C3=C(C(=O)[C@@H](O)[C@]12C)[C@@]1(C)CC[C@H](O)C(C)(C)[C@@H]1CC3=O)C(=O)O (stereo partly specified) [GANODERIC ACID C6] | 15.4 | 91.6
CC(CC(=O)C[C@@H](C)[C@H]1CC(=O)[C@@]2(C)C3=C(C(=O)C[C@]12C)[C@@]1(C)CCC(=O)C(C)(C)[C@@H]1C[C@@H]3O)C(=O)O (stereo partly specified) [GANODERIC ACID D] | 10.9 | 93.3
CC(=O)O[C@@H]1C(=O)C2=C(C(=O)C[C@H]3C(C)(C)C(=O)CC[C@]23C)[C@]2(C)C(=O)C[C@H]([C@H](C)CC(=O)CC(C)C(=O)O)[C@@]12C (stereo partly specified) [GANODERIC ACID F] | 24.1 | 90.6
CC(CC(=O)C[C@@H](C)[C@H]1CC(=O)[C@@]2(C)C3=C(C(=O)[C@@H](O)[C@]12C)[C@@]1(C)CC[C@H](O)C(C)(C)[C@@H]1C[C@@H]3O)C(=O)O (stereo partly specified) [GANODERIC ACID G] | 5.77 | 95.2
CC(=O)O[C@@H]1C(=O)C2=C(C(=O)C[C@H]3C(C)(C)[C@@H](O)CC[C@]23C)[C@]2(C)C(=O)C[C@H]([C@H](C)CC(=O)CC(C)C(=O)O)[C@@]12C (stereo partly specified) [GANODERIC ACID H] | 12.6 | 90.4
CC(CC(=O)C[C@@H](C)[C@H]1C[C@H](O)[C@@]2(C)C3=C(C(=O)C[C@]12C)[C@@]1(C)CCC(=O)C(C)(C)[C@@H]1CC3=O)C(=O)O (stereo partly specified) [GANODERIC ACID J] | 22 | 93.7
CC(=O)O[C@@H]1C(=O)C2=C([C@@H](O)C[C@H]3C(C)(C)[C@@H](O)CC[C@]23C)[C@]2(C)C(=O)C[C@H]([C@H](C)CC(=O)CC(C)C(=O)O)[C@@]12C (stereo partly specified) [GANODERIC ACID K] | 3.65 | 98.5
C[C@H](CC[C@H](O)[C@](C)(O)CO)[C@H]1CC[C@@]2(C)C3=CC[C@H]4C(C)(C)C(=O)CC[C@]4(C)C3=CC[C@]12C [GANODERMANONTRIOL] | 23.6 | 85.5
C/C(=C\CC[C@@H](C)[C@H]1CC[C@@]2(C)C3=CC[C@H]4C(C)(C)[C@@H](O)CC[C@]4(C)C3=CC[C@]12C)CO [GANODEROL B] | 13.7 | 91.3
CC(CC(=O)C[C@@H](C)[C@H]1C[C@H](O)[C@@]2(C)C3=C(C(=O)C[C@]12C)[C@@]1(C)CCC(=O)C(C)(C)[C@@H]1CC3)C(=O)O (stereo partly specified) [GANOLUCIDIC ACID A] | 25.3 | 95.2
COC(=O)C(C)CC(=O)C[C@@H](C)[C@H]1C[C@H](O)[C@@]2(C)C3=C(C(=O)C[C@]12C)[C@@]1(C)CCC(=O)C(C)(C)[C@@H]1C[C@@H]3O (stereo partly specified) [METHYL GANODERATE A] | 8.01 | 91.3
COC(=O)CC[C@@H](C)[C@H]1CC(=O)[C@@]2(C)C3=C(C(=O)[C@@H](O)[C@]12C)[C@@]1(C)CC[C@H](O)C(C)(C)[C@@H]1CC3=O [METHYL LUCIDENATE L] | 22.5 | 83.5
O=c1c(O)c(-c2ccc(O)c(O)c2)oc2cc(O)cc(O)c12 [QUERCETIN] | 15.1 | 92.5
